Values quoted from earlier work as cited in PMC6054295 (Infection and Drug Resistance, 2018).
Where no end group is shown, it is not given here.

What was measured:
[1] = tested on: MEWO cells
[2] = tested on: 3T3 cells
[3] = tested on: P. aeruginosa; conditions: at concentrations > 100 μM

| Substance | cytotoxicity [1] | cytotoxicity [2] | antibacterial activity [3] | concentration at which it behaves as a membrane-disrupting peptide |
| --- | --- | --- | --- | --- |
| N-APPGARPPPGPPPPGPPPPGP-C [SP-B] | noncytotoxic | noncytotoxic | negligible antibacterial activity | – |
| indolicidin: a proline- and tryptophan-rich peptide (ILPWKWPWWPWRR; ends and bridges not checked; UniProt P33046 131-143, looked up) | – | – | – | > 2.6 µM |
